Test results reported in ChEMBL document CHEMBL4673362, “Design, synthesis, and biological evaluation of 2,6,7-substituted pyrrolo[2,3-d]pyrimidines as cyclin dependent kinase inhibitor in pancreatic cancer cells” (Bioorg Med Chem Lett, 2021).
In brackets after ≈: the same amount, converted by molar mass. Activity calls are given as the source filed them. The rule behind the calls is not given here.

Assays:
[1] = target: Cyclin-dependent kinase 6 (Homo sapiens) (UniProt Q00534); assay: Inhibition of CDK6 (unknown origin) at 1 uM
[2] = target: Cyclin-dependent kinase 4 (Homo sapiens) (UniProt P11802); assay: Inhibition of CDK4 (unknown origin) at 1 uM
[3] = test system: BXPC-3; assay: Antiproliferative activity against human BxPC-3 cells assessed as inhibition of cell growth by MTT assay; assay type: functional, cell-based
[4] = target: CDK6/cyclin D1 (Homo sapiens, UniProt Q00534); assay: Inhibition of CDK6/cyclin D1 (unknown origin); assay type: protein-complex assay
[5] = target: Cyclin-dependent kinase 4/cyclin D1 (Homo sapiens, UniProt P11802); assay: Inhibition of CDK4/cyclin D1 (unknown origin); assay type: protein-complex assay
[6] = test system: MIA PaCa-2; assay: Antiproliferative activity against human MIA PaCa-2 cells assessed as inhibition of cell growth by MTT assay; assay type: functional, cell-based
[7] = test system: MIA PaCa-2; assay: Antiproliferative activity against human MIA PaCa-2 cells assessed as inhibition of cell proliferation at 0.5 uM in presence of 10 to 20 nM PI3K/mTOR inhibitor, BEZ235; assay type: functional, cell-based
[8] = test system: MIA PaCa-2; assay: Potency index, ratio of ribociclib IC50 to test compound IC50 for antiproliferative activity against human MIA PaCa-2 cells by MTT assay; assay type: functional
[9] = target: CDK6/cyclin D1 (Homo sapiens) (UniProt P24385+Q00534); assay: Inhibition of human CDK6/cyclin D1 at 1 uM relative to control; assay type: protein-complex assay
[10] = target: Cyclin-dependent kinase 4/cyclin D1 (Homo sapiens) (UniProt P11802+P24385); assay: Inhibition of human CDK4/cyclin D1 at 1 uM relative to control; assay type: protein-complex assay
[11] = target: CDK4/Cyclin D3 (Homo sapiens) (UniProt P11802+P30281); assay: Inhibition of human CDK4/cyclin D3 at 1 uM relative to control; assay type: protein-complex assay
[12] = target: Mitogen-activated protein kinase kinase kinase 9 (Homo sapiens) (UniProt P80192); assay: Inhibition of human MLK1 at 1 uM relative to control
[13] = target: Tyrosine-protein kinase Fer (Homo sapiens) (UniProt P16591); assay: Inhibition of human FER at 1 uM relative to control
[14] = target: Calcium/calmodulin-dependent protein kinase type 1 (Homo sapiens) (UniProt Q14012); assay: Inhibition of human CAMK1 at 1 uM relative to control
[15] = target: Calcium/calmodulin-dependent protein kinase kinase 1 (Homo sapiens) (UniProt Q8N5S9); assay: Inhibition of human CAMKKA at 1 uM relative to control
[16] = target: Dual specificity protein kinase TTK (Homo sapiens) (UniProt P33981); assay: Inhibition of human TTK at 1 uM relative to control
[17] = test system: MIA PaCa-2; assay: Cell cycle arrest in human MIA PaCa-2 cells assessed as accumulation at G1 phase; assay type: functional, cell-based; settings: dose 0.8-2.5 µM
[18] = test system: MIA PaCa-2; assay: Cell cycle arrest in human MIA PaCa-2 cells assessed as accumulation at G1 phase at 2.5 uM (reference value: 44.09 %); assay type: functional
[19] = test system: MIA PaCa-2; assay: Cell cycle arrest in human MIA PaCa-2 cells assessed as accumulation at G1 phase at 1.6 uM (reference value: 44.09 %); assay type: functional
[20] = test system: MIA PaCa-2; assay: Cell cycle arrest in human MIA PaCa-2 cells assessed as accumulation at G1 phase at 0.8 uM (reference value: 44.09 %); assay type: functional
[21] = test system: MIA PaCa-2; assay: Cell cycle arrest in human MIA PaCa-2 cells assessed as accumulation at G2 phase at 2.5 uM (reference value: 10.64 %); assay type: functional
[22] = test system: MIA PaCa-2; assay: Cell cycle arrest in human MIA PaCa-2 cells assessed as accumulation at G2 phase at 1.6 uM (reference value: 10.64 %); assay type: functional
[23] = test system: MIA PaCa-2; assay: Cell cycle arrest in human MIA PaCa-2 cells assessed as accumulation at G2 phase at 0.8 uM (reference value: 10.64 %); assay type: functional
[24] = test system: MIA PaCa-2; assay: Cell cycle arrest in human MIA PaCa-2 cells assessed as accumulation at S phase at 2.5 uM (reference value: 45.27 %); assay type: functional
[25] = test system: MIA PaCa-2; assay: Cell cycle arrest in human MIA PaCa-2 cells assessed as accumulation at S phase at 1.6 uM (reference value: 45.27 %); assay type: functional
[26] = test system: MIA PaCa-2; assay: Cell cycle arrest in human MIA PaCa-2 cells assessed as accumulation at S phase at 0.8 uM (reference value: 45.27 %); assay type: functional
[27] = test system: MIA PaCa-2; assay: Antiproliferative activity against human MIA PaCa-2 cells assessed as inhibition of cell proliferation at 1 uM in presence of PI3K/mTOR inhibitor, BEZ235; assay type: functional, cell-based
[28] = Solubility of the compound at pH 7.4; assay type: physicochemical; settings: buffer
[29] = Permeability of the compound at pH 7.4 by PAMPA; assay type: ADME; settings: read-out: permeability
[30] = Permeability of the compound at pH 5.0 by PAMPA; assay type: ADME; settings: read-out: permeability
[31] = Metabolic stability in rat liver microsomes assessed as half life; assay type: ADME, Microsome
[32] = Metabolic stability in human liver microsomes assessed as half life; assay type: ADME, Microsome

Sequence of CDK6/cyclin D1 (P24385 whole entry): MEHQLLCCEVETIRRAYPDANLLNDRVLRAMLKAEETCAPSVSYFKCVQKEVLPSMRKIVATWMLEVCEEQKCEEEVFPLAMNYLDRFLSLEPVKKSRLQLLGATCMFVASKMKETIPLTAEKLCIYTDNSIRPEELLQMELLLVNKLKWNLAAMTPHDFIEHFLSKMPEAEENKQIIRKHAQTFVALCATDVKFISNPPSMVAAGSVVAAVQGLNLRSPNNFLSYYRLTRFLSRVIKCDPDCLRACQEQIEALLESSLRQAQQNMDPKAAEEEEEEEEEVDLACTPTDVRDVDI
Sequence of CDK6/cyclin D1 (Q00534 whole entry): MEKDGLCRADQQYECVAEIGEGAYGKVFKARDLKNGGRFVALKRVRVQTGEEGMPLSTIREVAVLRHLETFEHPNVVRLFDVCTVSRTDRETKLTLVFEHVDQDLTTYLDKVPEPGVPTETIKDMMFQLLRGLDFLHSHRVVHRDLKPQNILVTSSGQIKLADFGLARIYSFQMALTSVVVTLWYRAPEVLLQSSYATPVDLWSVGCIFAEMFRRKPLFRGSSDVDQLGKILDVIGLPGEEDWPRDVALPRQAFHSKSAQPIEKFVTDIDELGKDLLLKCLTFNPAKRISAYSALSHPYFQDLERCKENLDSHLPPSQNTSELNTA
Sequence of Cyclin-dependent kinase 4/cyclin D1 (P11802 whole entry): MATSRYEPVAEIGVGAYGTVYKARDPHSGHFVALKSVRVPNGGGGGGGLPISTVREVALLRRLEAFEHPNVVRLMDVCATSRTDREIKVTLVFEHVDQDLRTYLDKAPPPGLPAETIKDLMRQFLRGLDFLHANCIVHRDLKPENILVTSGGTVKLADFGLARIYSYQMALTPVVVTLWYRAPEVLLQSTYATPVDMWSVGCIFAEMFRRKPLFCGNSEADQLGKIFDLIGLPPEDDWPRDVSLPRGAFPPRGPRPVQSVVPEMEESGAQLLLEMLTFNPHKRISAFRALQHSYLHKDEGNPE
Sequence of Cyclin-dependent kinase 4/cyclin D1 (P24385 whole entry, further chain): as the sequence (P24385 whole entry) above
Sequence of Cyclin-dependent kinase 4 (Homo sapiens) (P11802 whole entry): as the sequence (P11802 whole entry) above
Sequence of Cyclin-dependent kinase 6 (Homo sapiens) (Q00534 whole entry): as the sequence (Q00534 whole entry) above
Sequence of Calcium/calmodulin-dependent protein kinase kinase 1 (Homo sapiens) (Q8N5S9 whole entry, looked up): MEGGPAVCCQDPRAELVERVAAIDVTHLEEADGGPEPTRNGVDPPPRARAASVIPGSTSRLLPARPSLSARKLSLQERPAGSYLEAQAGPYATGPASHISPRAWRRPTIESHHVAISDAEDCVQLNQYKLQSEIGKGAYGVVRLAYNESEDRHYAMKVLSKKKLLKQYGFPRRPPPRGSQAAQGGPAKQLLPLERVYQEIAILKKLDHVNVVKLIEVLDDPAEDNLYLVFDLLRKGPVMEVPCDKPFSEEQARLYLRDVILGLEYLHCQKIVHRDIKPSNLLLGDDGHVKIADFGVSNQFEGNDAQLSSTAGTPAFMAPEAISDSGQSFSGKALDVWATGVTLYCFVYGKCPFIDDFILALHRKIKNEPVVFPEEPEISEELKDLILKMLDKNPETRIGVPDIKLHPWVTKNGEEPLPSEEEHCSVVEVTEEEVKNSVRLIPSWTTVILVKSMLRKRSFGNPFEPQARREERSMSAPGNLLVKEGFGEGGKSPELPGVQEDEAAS
Sequence of Dual specificity protein kinase TTK (Homo sapiens) (P33981 whole entry): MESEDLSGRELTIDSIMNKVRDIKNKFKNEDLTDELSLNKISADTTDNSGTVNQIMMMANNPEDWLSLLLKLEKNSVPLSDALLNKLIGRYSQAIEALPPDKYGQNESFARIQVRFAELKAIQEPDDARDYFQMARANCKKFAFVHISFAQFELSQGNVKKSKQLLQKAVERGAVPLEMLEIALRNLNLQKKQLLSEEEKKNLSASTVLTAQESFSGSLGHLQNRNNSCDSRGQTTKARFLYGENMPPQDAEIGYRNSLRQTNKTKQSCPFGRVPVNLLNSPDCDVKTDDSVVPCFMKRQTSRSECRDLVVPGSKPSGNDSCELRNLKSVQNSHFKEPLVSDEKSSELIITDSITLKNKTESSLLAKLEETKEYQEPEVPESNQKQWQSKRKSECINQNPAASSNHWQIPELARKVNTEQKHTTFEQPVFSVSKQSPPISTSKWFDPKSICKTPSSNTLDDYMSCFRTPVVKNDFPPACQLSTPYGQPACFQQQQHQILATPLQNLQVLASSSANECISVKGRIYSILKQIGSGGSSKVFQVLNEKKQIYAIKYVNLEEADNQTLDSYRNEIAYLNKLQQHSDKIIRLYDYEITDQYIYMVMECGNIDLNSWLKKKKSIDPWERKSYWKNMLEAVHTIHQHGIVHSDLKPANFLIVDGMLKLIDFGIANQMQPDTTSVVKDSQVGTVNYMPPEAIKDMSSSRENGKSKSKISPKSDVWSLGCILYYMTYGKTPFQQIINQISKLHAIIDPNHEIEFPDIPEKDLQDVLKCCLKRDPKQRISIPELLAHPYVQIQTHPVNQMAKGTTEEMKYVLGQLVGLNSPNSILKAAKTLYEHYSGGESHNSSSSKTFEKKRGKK
Sequence of Tyrosine-protein kinase Fer (Homo sapiens) (P16591 whole entry, looked up): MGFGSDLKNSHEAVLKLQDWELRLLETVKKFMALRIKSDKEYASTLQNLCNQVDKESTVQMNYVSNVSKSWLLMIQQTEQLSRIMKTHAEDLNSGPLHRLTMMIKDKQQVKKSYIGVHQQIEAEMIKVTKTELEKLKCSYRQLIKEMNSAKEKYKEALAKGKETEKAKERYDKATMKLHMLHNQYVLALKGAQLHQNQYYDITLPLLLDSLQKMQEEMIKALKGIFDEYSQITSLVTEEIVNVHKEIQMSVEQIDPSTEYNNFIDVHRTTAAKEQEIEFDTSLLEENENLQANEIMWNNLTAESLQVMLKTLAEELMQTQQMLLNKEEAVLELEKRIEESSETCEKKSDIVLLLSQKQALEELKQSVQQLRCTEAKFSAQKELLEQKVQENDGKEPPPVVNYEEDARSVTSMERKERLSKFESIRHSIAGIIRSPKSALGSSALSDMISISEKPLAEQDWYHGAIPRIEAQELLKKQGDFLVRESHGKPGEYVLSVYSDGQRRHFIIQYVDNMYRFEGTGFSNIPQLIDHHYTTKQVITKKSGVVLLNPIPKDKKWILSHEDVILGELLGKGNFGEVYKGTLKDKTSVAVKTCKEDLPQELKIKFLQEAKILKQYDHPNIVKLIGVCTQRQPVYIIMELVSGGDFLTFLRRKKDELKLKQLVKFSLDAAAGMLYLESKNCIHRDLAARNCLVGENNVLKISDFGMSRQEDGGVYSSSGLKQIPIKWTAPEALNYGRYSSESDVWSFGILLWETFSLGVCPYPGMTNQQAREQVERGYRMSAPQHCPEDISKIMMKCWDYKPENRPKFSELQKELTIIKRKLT
Sequence of Calcium/calmodulin-dependent protein kinase type 1 (Homo sapiens) (Q14012 whole entry, looked up): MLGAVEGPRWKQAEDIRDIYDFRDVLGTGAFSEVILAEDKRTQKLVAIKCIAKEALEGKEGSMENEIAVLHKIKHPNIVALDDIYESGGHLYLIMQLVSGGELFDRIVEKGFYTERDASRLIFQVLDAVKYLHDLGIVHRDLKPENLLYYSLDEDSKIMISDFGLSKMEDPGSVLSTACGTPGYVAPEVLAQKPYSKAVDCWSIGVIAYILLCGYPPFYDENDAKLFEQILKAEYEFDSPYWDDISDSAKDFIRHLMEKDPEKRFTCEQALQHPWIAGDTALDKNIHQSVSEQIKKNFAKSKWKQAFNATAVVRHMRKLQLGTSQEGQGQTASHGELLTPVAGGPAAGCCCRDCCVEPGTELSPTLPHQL
Sequence of Mitogen-activated protein kinase kinase kinase 9 (Homo sapiens) (P80192 whole entry, looked up): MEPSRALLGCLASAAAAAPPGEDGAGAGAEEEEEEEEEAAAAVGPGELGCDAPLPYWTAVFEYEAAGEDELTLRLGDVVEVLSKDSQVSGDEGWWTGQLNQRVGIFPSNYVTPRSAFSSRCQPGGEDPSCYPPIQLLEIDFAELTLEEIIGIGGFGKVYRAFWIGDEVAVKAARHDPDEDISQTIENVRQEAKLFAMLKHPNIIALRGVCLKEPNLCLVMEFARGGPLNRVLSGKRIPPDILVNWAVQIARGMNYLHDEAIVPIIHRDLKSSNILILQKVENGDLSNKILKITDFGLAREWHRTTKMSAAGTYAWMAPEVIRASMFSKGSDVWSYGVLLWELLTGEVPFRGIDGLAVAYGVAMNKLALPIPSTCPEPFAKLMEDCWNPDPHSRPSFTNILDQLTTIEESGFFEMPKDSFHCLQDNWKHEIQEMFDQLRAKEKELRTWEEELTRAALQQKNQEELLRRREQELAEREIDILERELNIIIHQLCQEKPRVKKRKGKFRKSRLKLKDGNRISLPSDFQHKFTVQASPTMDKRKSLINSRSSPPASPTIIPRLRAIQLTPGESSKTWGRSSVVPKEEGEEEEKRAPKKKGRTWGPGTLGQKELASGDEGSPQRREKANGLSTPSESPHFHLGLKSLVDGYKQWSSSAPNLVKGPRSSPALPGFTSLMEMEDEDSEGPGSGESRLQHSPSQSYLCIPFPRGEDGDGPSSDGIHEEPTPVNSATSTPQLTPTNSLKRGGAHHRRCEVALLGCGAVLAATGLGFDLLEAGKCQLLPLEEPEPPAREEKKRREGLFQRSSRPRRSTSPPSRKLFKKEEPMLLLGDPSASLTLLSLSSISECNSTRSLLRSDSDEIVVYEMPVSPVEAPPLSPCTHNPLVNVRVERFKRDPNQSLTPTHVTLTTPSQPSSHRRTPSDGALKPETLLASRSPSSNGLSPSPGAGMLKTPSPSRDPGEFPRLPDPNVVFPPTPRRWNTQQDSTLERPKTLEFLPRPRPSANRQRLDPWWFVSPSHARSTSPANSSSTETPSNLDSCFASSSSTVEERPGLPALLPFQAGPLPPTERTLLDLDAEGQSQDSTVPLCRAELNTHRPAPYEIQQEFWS

In the case of `O=C(Nc1ccccc1Cl)c1cc2cnc(Nc3ccc(N4CCNCC4)cn3)nc2n1C1CCCC1`, the inhibition [1] is reported as “Active”, the inhibition [2] is reported as “Active” and the IC50 [3] is reported as 4350 nM. For the same molecule, the IC50 [4] was 52.8 nM, the IC50 [5] was 23 nM and the IC50 [6] was 2170 nM.

Molecule `COc1ccc(NC(=O)c2cc3cnc(Nc4ccc(N5CCNCC5)cn4)nc3n2C2CCCC2)cc1` has an IC50 [3] of 8970 nM, an IC50 [4] of 391 nM and an IC50 [5] of 121 nM. The IC50 [6] was 2880 nM.

In the case of `O=C(Nc1ccc[n+]([O-])c1)c1cc2cnc(Nc3ccc(N4CCNCC4)cn3)nc2n1C1CCCC1`, the IC50 [5] is reported as 3050 nM and the IC50 [6] is reported as 124000 nM.

For `O=C(Nc1ccccc1C(F)(F)F)c1cc2cnc(Nc3ccc(N4CCNCC4)cn3)nc2n1C1CCCC1`, the inhibition [1] was “Active”, the inhibition [2] was “Active” and the IC50 [3] was 8040 nM. The IC50 [4] was 666 nM, the IC50 [5] was 60.3 nM and the IC50 [6] was 3160 nM.

For `O=C(Nc1ccccc1)c1cc2cnc(Nc3ccccc3)nc2n1C1CCCC1`, the IC50 [5] was 1190 nM and the IC50 [6] was 14000 nM.

Molecule `CN(C)C(=O)c1cc2cnc(NC3CCCCC3)nc2n1C1CCCC1` has an IC50 [5] of 379 nM and an IC50 [6] of 25000 nM.

With `COc1ccccc1NC(=O)c1cc2cnc(Nc3ccc(N4CCNCC4)cn3)nc2n1C1CCCC1` the Activity [7] was “Active”, the “Ratio IC50” value [8] was 10 and the inhibition [1] was “Active”. The inhibition [2] was “Active”, the inhibition [9] was > 80% and the inhibition [10] was > 80%. For the same molecule, the inhibition [11] was > 80%, the inhibition [12] was > 80% and the inhibition [13] was > 80%. For the same molecule, the inhibition [14] was > 80%, the inhibition [15] was > 80% and the inhibition [16] was > 80%. The Activity [17] was “Dose-dependent effect”, the Activity [18] was 74.31% and the Activity [19] was 65.48%. The Activity [20] was 60%, the Activity [21] was 4.06% and the Activity [22] was 3.69%. It also gave an Activity [23] of 4.85%, an Activity [24] of 21.63% and an Activity [25] of 30.8%. For the same molecule, the Activity [26] was 35.15%, the IC50 [3] was 4120 nM and the IC50 [4] was 52.3 nM. The IC50 [5] was 20.5 nM, the IC50 [6] was 1830 nM and the Activity [27] was “Active”. For the same molecule, the solubility [28] was 1.1 µg/mL (≈ 2.15 µM), the Papp [29] was 464 ×10⁻⁶ cm/s and the Papp [30] was 517 ×10⁻⁶ cm/s. The half-life [31] was > 0.5 h and the half-life [32] was 1.21 h.

With `CC(=O)c1c(C)c2cnc(Nc3ccc(N4CCNCC4)cn3)nc2n(C2CCCC2)c1=O` [PALBOCICLIB] the IC50 [6] was 10600 nM.

`O=C(c1cc2cnc(Nc3ccc(N4CCNCC4)cn3)nc2n1C1CCCC1)N1CCCCC1` showed an IC50 [5] of 861 nM and an IC50 [6] of 39600 nM.

For `O=C(Nc1ccccc1)c1cc2cnc(Nc3ccc(N4CCNCC4)cn3)nc2n1C1CCCC1`, the inhibition [1] was “Active”, the inhibition [2] was “Active” and the IC50 [3] was 5120 nM. For the same molecule, the IC50 [4] was 63.8 nM, the IC50 [5] was 28.7 nM and the IC50 [6] was 2800 nM.

With `CN(C)C(=O)c1cc2cnc(Nc3ccc(N4CCNCC4)cn3)nc2n1Cc1ccccc1` the IC50 [5] was > 100000 nM and the IC50 [6] was 30400 nM.

With `Cc1ccccc1NC(=O)c1cc2cnc(Nc3ccc(N4CCNCC4)cn3)nc2n1C1CCCC1` the inhibition [1] was “Active”, the inhibition [2] was “Active” and the IC50 [3] was 3340 nM. It also gave an IC50 [4] of 64 nM, an IC50 [5] of 28.2 nM and an IC50 [6] of 2500 nM.
